Key:
QR1 (NQO1) [1] = target: T1, QR1 (NQO1) (Homo sapiens, UniProt P15559); test: Selectivity assay with QR1 in place of QR2, absorbance readout; type: biochemical
T1 construct: purchased Sigma-Aldrich
Description: (§1) The enzymatic activity of QR2 (10 nM) was measured using menadione (both Sigma-Aldrich) as substrate and dihydrobenzylnicotamide (BNAH; Tocris) as co-substrate (Boutin et al., 2005). The reaction was performed in 50 mM Tris HCl, 150 mM NaCl 0.01% Tween-20 pH=8.5 (Sigma-Aldrich) at room temperature. Briefly, 3 μL of menadione alone (200 μM) or a mixture of menadione and QR2 (200 μM of menadione and 10 nM of QR2) were dispensed in 1536-well black Nunc plates (Thermo-Fisher) using a Multidrop™ Combi Reagent Dispenser (Thermo-Fisher) and pre-incubated with compounds for 10 min. BNAH (200 μM) was then added (3 μL) to the reaction using a BioNex Solutions BNX 1536 plate washer and the plates were incubated for another 10 min. […] The initial HTS was done with approximately 200,000 compounds at a single concentration of 5 μM. The chemical libraries used were Selleck Chemicals Bioactives, the Drug-like set from Enamine, HitFinder collection from Maybridge, Spectrum Collection from Microsource, Lopac from Sigma-Aldrich and the diversity sets from ChemDiv and ChemBridge. Initial “hit” compounds were defined as causing >30% reduction of enzyme activity. Compounds suspected to be fluorescent were re-assayed in an absorbance assay at 350 nm using the same reaction but in a higher volume (100 μL), in a transparent plate (Greiner Bio-One). “Hit” compounds resulting from both the fluorescence and absorbance assay were tested in a dose-response, and median inhibition concentration (IC50) values were determined. In parallel, the same dose response was used in a selectivity assay where QR2 enzyme was replaced by QR1 (also known as—NQO1, 10 nM; Sigma-Aldrich).
(§2) In order to establish a varied, flexible and chemically amenable starting point from which to develop such inhibitors, the inventors ran a standardized QR2 assay (see methods) against ˜200,000 compounds, from a varied assortment of chemical libraries. […] Compounds that replicated the initial hit result were then assayed similarly, against NQO1, to evaluate compound specificity (FIG. 1B). From the HTS, a series of compounds containing a sulfonamide central linker, with an amine on one side and a heterocycle on the other, were identified and selected for SAR development (FIG. 1C).

QR1 (NQO1) [2] = target: T1, QR1 (NQO1); test: Selectivity assay with QR1 in place of QR2, fluorescence readout; type: biochemical
Description: as §1, §2

in vitro = details: human
QR2 [3] = target: T2, QR2 (Homo sapiens, UniProt P16083); test: QR2 enzymatic activity assay (menadione/BNAH), absorbance readout at 350 nm; type: biochemical; set-up: purchased Sigma-Aldrich
T2 sequence (P16083 1-231): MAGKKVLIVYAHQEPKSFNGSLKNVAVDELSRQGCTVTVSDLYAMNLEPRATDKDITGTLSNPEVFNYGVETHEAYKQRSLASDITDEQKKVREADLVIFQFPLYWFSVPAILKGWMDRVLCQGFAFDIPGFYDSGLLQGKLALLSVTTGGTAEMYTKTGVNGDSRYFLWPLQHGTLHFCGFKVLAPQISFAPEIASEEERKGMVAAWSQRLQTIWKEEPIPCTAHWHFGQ
Description: (§3) The enzymatic activity of QR2 (10 nM) was measured using menadione (both Sigma-Aldrich) as substrate and dihydrobenzylnicotamide (BNAH; Tocris) as co-substrate (Boutin et al., 2005). The reaction was performed in 50 mM Tris HCl, 150 mM NaCl 0.01% Tween-20 pH=8.5 (Sigma-Aldrich) at room temperature. Briefly, 3 μL of menadione alone (200 μM) or a mixture of menadione and QR2 (200 μM of menadione and 10 nM of QR2) were dispensed in 1536-well black Nunc plates (Thermo-Fisher) using a Multidrop™ Combi Reagent Dispenser (Thermo-Fisher) and pre-incubated with compounds for 10 min. BNAH (200 μM) was then added (3 μL) to the reaction using a BioNex Solutions BNX 1536 plate washer and the plates were incubated for another 10 min. […] The initial HTS was done with approximately 200,000 compounds at a single concentration of 5 μM. The chemical libraries used were Selleck Chemicals Bioactives, the Drug-like set from Enamine, HitFinder collection from Maybridge, Spectrum Collection from Microsource, Lopac from Sigma-Aldrich and the diversity sets from ChemDiv and ChemBridge. Initial “hit” compounds were defined as causing >30% reduction of enzyme activity. […] “Hit” compounds resulting from both the fluorescence and absorbance assay were tested in a dose-response, and median inhibition concentration (IC50) values were determined. In parallel, the same dose response was used in a selectivity assay where QR2 enzyme was replaced by QR1 (also known as—NQO1, 10 nM; Sigma-Aldrich).
(§4) In order to establish a varied, flexible and chemically amenable starting point from which to develop such inhibitors, the inventors ran a standardized QR2 assay (see methods) against ˜200,000 compounds, from a varied assortment of chemical libraries.

QR2 [4] = target: T2, QR2; test: QR2 enzymatic activity assay (menadione/BNAH), fluorescence readout; type: biochemical; set-up: purchased Sigma-Aldrich
Description: as §3, §4

T1 sequence (P15559 whole entry): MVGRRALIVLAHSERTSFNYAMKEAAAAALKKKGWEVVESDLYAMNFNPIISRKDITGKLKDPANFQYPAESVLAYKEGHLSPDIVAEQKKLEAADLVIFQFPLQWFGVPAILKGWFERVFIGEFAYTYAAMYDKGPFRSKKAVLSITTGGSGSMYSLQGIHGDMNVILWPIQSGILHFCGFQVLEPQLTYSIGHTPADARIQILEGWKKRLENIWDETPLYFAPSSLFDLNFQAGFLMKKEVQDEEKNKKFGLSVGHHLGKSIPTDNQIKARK

Row | Structure (SMILES) | IC50 (QR1 (NQO1) [1]) [µM] | IC50 (QR1 (NQO1) [2]) [µM] | IC50 at 72 h (in vitro) [µM] | IC50 (QR2 [3]) [µM] | IC50 (QR2 [4]) [µM]
1 | Cc1ccn2cc(-c3cccc(S(=O)(=O)N4CCCC4)c3)nc2c1 [PCM-0124535] | > 9.99 | > 9.99 | 88.9 | 0.16 | 0.59
2 | Cc1cccn2cc(-c3cccc(S(=O)(=O)N4CCCCCC4)c3)nc12 [PCM-0124812] | 7.24 | 5.83 | 45.4 | 0.01 | 0.004
3 | Cc1cc(-c2ccc(C)c(S(=O)(=O)NCCCN3CCCC3=O)c2)on1 [PCM-0184891] | > 9.99 | > 9.9 | 219 | 2.37 | 3.26
4 | Cc1cc(-c2ccc(C)c(S(=O)(=O)NCc3cccnc3)c2)on1 [PCM-0184959] | > 9.99 | > 9.9 | 249 | 2.16 | 2.72
5 | Cc1nc(-c2ccc(C)c(S(=O)(=O)N3CCC(C)CC3)c2)cs1 [PCM-0197104] | > 9.99 | > 9.99 |  | 4.58 | 7.4
6 | CCc1noc(-c2c(S(=O)(=O)NCc3cccc(OC)c3)c(C)n(C)c2C)n1 [PCM-0200337] | > 9.99 | > 9.9 |  | 8.09 | > 9.9
7 | CS(=O)(=O)N(C1CC1)C1CCOC2(CCN(C(=O)C3(c4ccccc4)CC3)CC2)C1 (centres unmarked) [PCM-0207818] | > 9.99 | > 9.9 |  | > 9.99 | > 9.9
8 | Cc1cc(-c2ccc(C)c(S(=O)(=O)N3CCCCCC3)c2)on1 [PCM-0212385] | > 9.99 | > 9.99 | 23.8 | 1.24 | 1.92
9 | Cc1cc(-c2ccc(C)c(S(=O)(=O)N3CCCC3)c2)on1 [PCM-0212386] | > 9.99 | > 9.99 | 65.1 | 0.75 | 0.42
10 | Cc1cc(-c2ccc(C)c(S(=O)(=O)N3CCC(C)CC3)c2)on1 [PCM-0212387] | > 9.99 | > 9.99 | 50 | 1.83 | 2.89
11 | Cc1cc(-c2ccc(C)c(S(=O)(=O)N3CCN(C(=O)c4ccco4)CC3)c2)on1 [PCM-0212388] | > 9.99 | > 9.99 | 124 | 1.25 | 1.19
12 | Cc1cc(-c2ccc(C)c(S(=O)(=O)N(C)C)c2)on1 [PCM-0212389] | > 9.99 | > 9.99 | 215 | 1.71 | 2.31
13 | Cc1cccn2cc(-c3cccc(S(=O)(=O)Nc4ccc(Cl)cc4)c3)nc12 [PCM-0213788] | > 9.99 | > 9.99 |  | 0.05 | 3.04
14 | Cc1ccn2cc(-c3ccc(C)c(S(=O)(=O)N4CCN(C(=O)c5ccco5)CC4)c3)nc2c1 [PCM-0213790] | 7.15 | > 9.99 |  | 0.11 | 0.27
15 | Cc1cc(-c2ccc(C)c(S(=O)(=O)N3CCN(C(=O)c4ccco4)CC3)c2)n[nH]1 [PCM-0213791] | > 9.99 | > 9.99 |  | 0.08 | 0.26
16 | Cc1cccn2cc(-c3cccc(S(=O)(=O)N4CCN(C(=O)c5ccco5)CC4)c3)nc12 [PCM-0213792] | 4.22 | 3.33 | 64.1 | 0.01 | 0.01
17 | Cc1nc(-c2ccc(C)c(S(=O)(=O)NCCCN3CCCC3=O)c2)cs1 [PCM-0213793] | > 9.99 | > 9.99 |  | 2.91 | 5.45
18 | Cc1cccn2cc(-c3cccc(S(=O)(=O)NCCCN4CCCC4=O)c3)nc12 [PCM-0213794] | > 9.99 | > 9.99 |  | 0.11 | 0.25

Row | Structure (SMILES) | IC50 (QR1 (NQO1) [1]) [µM] | IC50 (QR1 (NQO1) [2]) [µM] | IC50 at 72 h (in vitro) [µM] | IC50 (QR2 [3]) [µM] | IC50 (QR2 [4]) [µM]
19 | Cc1cc(-c2ccc(C)c(S(=O)(=O)N3CCCCCC3)c2)[nH]n1 [PCM-0213795] | > 9.99 | > 9.99 |  | 0.28 | 0.64
20 | Cc1nc(-c2ccc(C)c(S(=O)(=O)N3CCCCCC3)c2)cs1 [PCM-0213796] | > 9.99 | > 9.99 |  | 2.44 | > 9.99
21 | Cc1ccc(-c2nnc(-c3ccccc3)o2)cc1S(=O)(=O)N1CCCCCC1 [PCM-0213797] | > 9.99 | > 9.99 |  | 1.06 | 3.38
22 | Cc1ccn2cc(-c3cccc(S(=O)(=O)N4CCCCCC4)c3)nc2c1 [PCM-0213798] | > 9.99 | > 9.99 |  | 0.41 | 1.27
23 | Cc1cc(-c2ccc(C)c(S(=O)(=O)N3CCC(C)CC3)c2)n[nH]1 [PCM-0213799] | > 9.99 | > 9.99 |  | 0.27 | 0.9
24 | Cc1cc(-c2ccc(C)c(S(=O)(=O)N(C)C)c2)n[nH]1 [PCM-0213802] | > 9.99 | > 9.99 |  | 0.16 | 0.39
25 | Cc1nc(-c2ccc(C)c(S(=O)(=O)N(C)C)c2)cs1 [PCM-0213803] | > 9.99 | > 9.99 |  | 0.1 | 2.8
26 | Cc1ccc(-c2nnc(-c3ccccc3)o2)cc1S(=O)(=O)N1CCCC1 [PCM-0213805] | > 9.99 | > 9.99 |  | 0.25 | 1.48
27 | Cc1cc(-c2ccc(C)c(S(=O)(=O)N3CCCC3)c2)n[nH]1 [PCM-0213806] | > 9.99 | > 9.99 |  | 0.05 | 0.17
28 | Cc1nc(-c2ccc(C)c(S(=O)(=O)N3CCCC3)c2)cs1 [PCM-0213807] | > 9.99 | > 9.99 |  | 0.37 | 1.55
29 | Cc1ccn2cc(-c3ccc(C)c(S(=O)(=O)N4CCCC4)c3)nc2c1 [PCM-0213809] | > 9.99 | > 9.99 |  | 0.18 | 0.51
30 | Cc1cc(-c2ccc(C)c(S(=O)(=O)NCc3cccnc3)c2)n[nH]1 [PCM-0213811] | > 9.99 | > 9.99 |  | 0.98 | 3.16
31 | Cc1ccn2cc(-c3cccc(S(=O)(=O)NCc4cccnc4)c3)nc2c1 [PCM-0213812] | 8.6 | > 9.99 |  | 0.75 | 9.62
32 | Cc1ccc(-c2nnc(-c3ccccc3)o2)cc1S(=O)(=O)NCc1cccnc1 [PCM-0213813] | > 9.99 | > 9.99 |  | 1.17 | 6.49
33 | Cc1cc(-c2ccc(C)c(S(=O)(=O)NCCCN3CCCC3=O)c2)n[nH]1 [PCM-0213815] | > 9.99 | > 9.99 |  | 0.28 | 0.93
34 | Cc1ccn2cc(-c3cccc(S(=O)(=O)NCCCN4CCCC4=O)c3)nc2c1 [PCM-0213817] | 3.44 | 5.28 |  | 0.32 | 0.7
35 | Cc1ccn2cc(-c3ccc(C)c(S(=O)(=O)N4CCC(C)CC4)c3)nc2c1 [PCM-0214339] |  |  | 59.4 | 4.49 | 3.96

Reference: US20240228481A1, “NOVEL SULFONAMIDE SERIES OF QR2 INHIBITORS TO TACKLE OXIDATIVE STRESS AND COGNITIVE DECLINE” (CARMEL HAIFA UNIVERSITY ECONOMIC CORPORATION LTD., priority 2021, published 2024)
